Measured values taken from US20140113904A1, “TREATMENT OF CANCER WITH TOR KINASE INHIBITORS” (SIGNAL PHARMACEUTICALS, LLC, priority 2012, published 2014).
Like-named read-outs stand apart in the source and are kept apart here.

Tests used:
pS6RP = pS6RP in PC3 tumors, MSD (Compound 2); type: in vivo, SCID mice; conditions: Mus musculus; for inhibition at 0.1 mg/kg: 0.1 mg/kg single oral dose; for inhibition at 0.3 mg/kg: 0.3 mg/kg single oral dose
PC3 cell line = assay: WST-1 cell proliferation assay (Compound 2); type: cell-based; conditions: Homo sapiens
Protocol: All growth inhibition experiments were repeated on different occasions at least twice. Potency was determined by calculating the IC50 value using the data describing the growth inhibition curve. A reference compound was included in each plate assay to monitor inter-assay variation and the IC50 value for the reference compound was used as part of the acceptance criteria for the assay. […] Next, compound was added to the designated well at a dilution of 1:10 (i.e., 20 μL of the diluted compound was added to 180 μL of culture media in each well). The final dilution of compound was 1:500, which yielded a final DMSO concentration of 0.2% in each well. All concentrations were performed in triplicate. Additionally, each plate tested contained cells treated with a reference compound in order to evaluate interassay variation and the IC50 value generated was used as criteria in accepting the test data. […] Cell proliferation was assessed using the WST-1 assay, which is based on measurement of metabolic activity via the reduction of tetrazolium salts to formazan salts. […] Absorbance was measured at 450 nm on the VICTOR™ X2 multilabel plate reader (PerkinElmer). […] The software (XLfit from IDBS) calculated the percentage inhibition at each concentration of compound by normalizing to the DMSO control values. […] Percentage inhibition curves were plotted and IC50 values calculated.

CD-31 = CD-31 immunohistochemistry in PC3 tumors (Compound 1); type: in vivo, SCID mice; conditions: 25 mg/kg oral QD for 6 days, 2 hours after last dose
Protocol: Two hours after the last dose of either vehicle, Compound 1, or rapamycin, the mice were euthanized and the tumors were dissected. The tumors were snap frozen in liquid nitrogen and processed for immunohistochemistry (IHC) and TUNEL.
Five to ten micron thick cryostat sections of tumor samples were used for IHC. The expression of a cell proliferation marker Ki-67 was evaluated by IHC using anti-Ki-67 antibody. Anti-CD-31 antibody was used to determine blood vessel density and is a measurement of tumor angiogenesis. Frozen sections were fixed in 4% paraformaldehyde for 10 minutes at room temperature, washed in PBS, blocked and permeabilized with normal goat serum and triton x-100. Sections were then incubated with primary antibody (overnight) followed by incubation with secondary antibody (60 minutes). […] The sections were visualized with a Nikon E800 microscope equipped with fluorescence detection equipment and a digital camera attached to a computer.
The tissues sections processed for apoptosis or immunostained for proliferating cells (Ki-67) or blood vessels were quantitated using Metamorph software. Using 20× objective, 5 different fields from each section, 2 to 4 sections from each tumor, and 3 to 4 tumors from each treatment group or control were used for quantitation. The area of interest was expressed as the percent threshold area of the total area.

[1] = Body weight in Compound 1 PC3 xenograft efficacy studies; type: in vivo, SCID mice
Protocol: The BID dose groups were dosed with a 10-hour separation between the morning and evening doses. […] At the end of each study, plasma and/or tumor samples were collected.
Initial body weights were recorded prior to the initiation of treatment using a digital scale. The percent body weight change during the course of the study was calculated using initial body weight measurements. Body weights of each animal were measured twice a week at the same time that tumor measurements were taken. Body weights were measured more frequently if significant decreases were noted during the course of the study.

[2] = 0.5 h, read-out: PD Marker Inhibition (%) pS6RP
[3] = 1 h, read-out: PD Marker Inhibition (%) pS6RP
[4] = 3 h, read-out: PD Marker Inhibition (%) pS6RP
[5] = 6 h, read-out: PD Marker Inhibition (%) pS6RP
[6] = 10 h, read-out: PD Marker Inhibition (%) pS6RP
[7] = 24 h, read-out: PD Marker Inhibition (%) pS6RP

## CCN1C(=O)CNc2ncc(-c3ccc(-c4nc[nH]n4)nc3C)nc21 [Compound 2, 1-ethyl-7-(2-methyl-6-(1H-1,2,4-triazol-3-yl)pyridin-3-yl)-3,4-dihydropyrazino[2,3-b]pyrazin-2(1H)-one]
pS6RP; [2]
  inhibition at 0.1 mg/kg: 45.7%
  inhibition at 0.3 mg/kg: 69.8%
pS6RP; [3]
  inhibition at 0.1 mg/kg: 38.2%
  inhibition at 0.3 mg/kg: 79.6%
pS6RP; [4]
  inhibition at 0.1 mg/kg: 27.2%
  inhibition at 0.3 mg/kg: 73.5%
pS6RP; [5]
  inhibition at 0.1 mg/kg: 23.3%
  inhibition at 0.3 mg/kg: 67.3%
pS6RP; [6]
  inhibition at 0.1 mg/kg: 17.6%
  inhibition at 0.3 mg/kg: 57.9%
pS6RP; [7]
  inhibition at 0.1 mg/kg: 0%
  inhibition at 0.3 mg/kg: 33.3%
pS6RP; 1 mg/kg single dose, through 10 hours, read-out: inhibition of pS6RP in tumor
  inhibition at 1 mg/kg: ~80%
pS6RP; 1 mg/kg single oral dose, 1 h, read-out: PD Marker Inhibition (%) pS6RP
  inhibition at 1 mg/kg: 84.6%
pS6RP; 1 mg/kg single oral dose, 3 h, read-out: PD Marker Inhibition (%) pS6RP
  inhibition at 1 mg/kg: 89.5%
pS6RP; 1 mg/kg single oral dose, 6 h, read-out: PD Marker Inhibition (%) pS6RP
  inhibition at 1 mg/kg: 82.8%
pS6RP; 1 mg/kg single oral dose, 10 h, read-out: PD Marker Inhibition (%) pS6RP
  inhibition at 1 mg/kg: 78.7%
pS6RP; 1 mg/kg single oral dose, 24 h, read-out: PD Marker Inhibition (%) pS6RP
  inhibition at 1 mg/kg: 0%
pS6RP; 10 mg/kg single dose, through 24 hours, read-out: inhibition of both PD markers (pS6RP, pAKT (S473))
  inhibition at 10 mg/kg: ≥ 80%
pS6RP; 10 mg/kg single oral dose, 1 h, read-out: PD Marker Inhibition (%) pS6RP
  inhibition at 10 mg/kg: 85.3%
pS6RP; 10 mg/kg single oral dose, 3 h, read-out: PD Marker Inhibition (%) pS6RP
  inhibition at 10 mg/kg: 91.3%
pS6RP; 10 mg/kg single oral dose, 6 h, read-out: PD Marker Inhibition (%) pS6RP
  inhibition at 10 mg/kg: 93.5%
pS6RP; 10 mg/kg single oral dose, 10 h, read-out: PD Marker Inhibition (%) pS6RP
  inhibition at 10 mg/kg: 93.7%
pS6RP; 10 mg/kg single oral dose, 24 h, read-out: PD Marker Inhibition (%) pS6RP
  inhibition at 10 mg/kg: 93.2%
PC3 cell line; PC-3, 72 h, PC3 cell line, 3 days, average, read-out: growth inhibition IC50
  IC50: 0.14 µM
PC3 cell line; PC-3, prostate tumor cells, read-out: growth inhibition IC50 values
  IC50: 0.14 to 1.31 µM

## CO[C@H]1CC[C@H](N2C(=O)CNc3ncc(-c4ccc(C(C)(C)O)nc4)nc32)CC1 [Compound 1, 7-(6-(2-hydroxypropan-2-yl)pyridin-3-yl)-1-((1r,4r)-4-methoxycyclohexyl)-3,4-dihydropyrazino-[2,3-b]pyrazin-2(1H)-one]
CD-31
  CD-31 positive blood vessels vs vehicle: significantly (p<0.01) fewer
[1]; 10 mg/kg QD, 3 weeks, data not shown
  change in body weight: No significant change
[1]; 25 mg/kg QD, end of the first cycle
  loss of initial body mass: approximately 10%
[1]; 25 mg/kg QD, intermittent dosing study period
  body weight loss: about 10%
[1]; 25 mg/kg QD, second dosing cycle
  body weight change: about 5%
[1]; regression study, 25 mg/kg QD, by Day 26, euthanized
  loss of initial body weight: over 19%
